Laboratory results taken from patent US10159640B2, “Prebiotic oral care compositions containing amino acids” (COLGATE-PALMOLIVE COMPANY, priority 2013, dated 2018).

Experiments:
Test in all cases: Biofilm growth assay in BHI, crystal violet
Format in all cases: cell-based
Settings in all cases: control = 1
Streptococcus sanguinis = tested on: Streptococcus sanguinis
Method: (§1) The increase in biofilm formation of the tested bacteria in response to selected compounds (Met-Pro, Phe-Glu) was investigated by setting up biofilm growth assays in a nutritionally rich medium (brain heart infusion broth (BHI), Oxoid), over 48 hours. Late exponential growth phase liquid cultures were prepared by transferring the respective bacterium from blood agar plates to BHI and overnight incubation at 37° C. in an anaerobic atmosphere for A. viscosus, V. parvula, F. nucleatum, P. gingivalis, P. intermedia, T. forsythia, A. naeslundii, and C. sputigena, and in a 5% CO2 environment for S. salivarius, S. sanguinis, S. mitis, A. actinomycetemcomitans, S. mutans, and S. gordonii. Overnight cultures were transferred to BHI and adjusted to a concentration of 1×10^7 CFU/ml by measuring the optical density at 600 nm (OD600) (BioRad SmartSpec 3000). For each strain, 200 μl of the bacterial suspension was added to a 96-well plate containing 20 μl of the respective di-peptides. Final concentrations of the di-peptides were set to 5, 10, 20 and 25 μmol/ml. […] Additionally, for each bacterium tested, a background control, to correct for background staining, was added. This background control contained the bacterium tested and 0.03 weight % chlorhexidine, as an antiseptic. Plates were incubated as previously described. After 48 hrs the supernatant was removed from the wells of the plates. The wells were washed twice with 1×100 μL PBS (phosphate buffered saline), fixed for 20 minutes with 96% vol. ethanol (96% vol. solution in water) and the biofilm retained at the bottom of the wells was stained with 1 weight % crystal violet (1 weight % solution in water). The bound dye was dissolved with 5% vol. acetic acid (5% vol. solution in water). Quantification of the stained biofilm was performed by measuring the absorbance at 630 nm using a Multiskan Ascent microplate reader (Thermo Scientific).
(§2) The experiment was carried out on three different days (thus providing 3 biological replicas) and each day the experiment was carried out in quadruple (thus providing 4 technical replicas) for each combination of bacterium with dipeptide and for each control. For each day and for each combination, the average (mean) of the values obtained (as detailed above) for the four technical replicas was calculated to provide a single value for each combination on each day. The values shown in Tables 7 to 8, below, are the average (mean) of the three single values obtained for each combination of bacterium with dipeptide.

Streptococcus salivarius = tested on: Streptococcus salivarius
Method: as §1, §2

Actinomyces naeslundii = tested on: Actinomyces naeslundii
Method: as §1, §2

Streptococcus mutans = tested on: Streptococcus mutans
Method: as §1, §2

Fusobacterium nucleatum = tested on: Fusobacterium nucleatum
Method: as §1, §2

Streptococcus gordonii = tested on: Streptococcus gordonii
Method: as §1, §2

Porphyromonas gingivalis = tested on: Porphyromonas gingivalis
Method: as §1, §2

Capnocytophaga sputigena = tested on: Capnocytophaga sputigena
Method: as §1, §2

Tannerella forsythia = tested on: Tannerella forsythia
Method: as §1, §2

Actinomyces viscosus = tested on: Actinomyces viscosus
Method: as §1, §2

[1] = tested on: Aggregatibacter actinomycetemcomitans
Method: as §1, §2

Veillonella parvula = tested on: Veillonella parvula
Method: as §1, §2

Prevotella intermedia = tested on: Prevotella intermedia
Method: as §1, §2

Streptococcus mitis = tested on: Streptococcus mitis
Method: as §1, §2

Phe-Glu was tested, and the “biofilm growth: OD 630 nm (crystal violet) at 48 hrs divided by OD of control” value (Streptococcus sanguinis; 5 μmol/ml) was 1.2254, the “biofilm growth: OD 630 nm (crystal violet) at 48 hrs divided by OD of control” value (Streptococcus sanguinis; 10 μmol/ml) was 1.0551 and the “biofilm growth: OD 630 nm (crystal violet) at 48 hrs divided by OD of control” value (Streptococcus sanguinis; 20 μmol/ml) was 0.5417. For the same substance, the “biofilm growth: OD 630 nm (crystal violet) at 48 hrs divided by OD of control” value (Streptococcus sanguinis; 25 μmol/ml) was 0.4820, the “biofilm growth: OD 630 nm (crystal violet) at 48 hrs divided by OD of control” value (Streptococcus salivarius; 5 μmol/ml) was 1.4007 and the “biofilm growth: OD 630 nm (crystal violet) at 48 hrs divided by OD of control” value (Streptococcus salivarius; 10 μmol/ml) was 1.0359. For the same substance, the “biofilm growth: OD 630 nm (crystal violet) at 48 hrs divided by OD of control” value (Streptococcus salivarius; 20 μmol/ml) was 0.8978, the “biofilm growth: OD 630 nm (crystal violet) at 48 hrs divided by OD of control” value (Streptococcus salivarius; 25 μmol/ml) was 0.7342 and the “biofilm growth: OD 630 nm (crystal violet) at 48 hrs divided by OD of control” value (Actinomyces naeslundii; 5 μmol/ml) was 0.9914. For the same substance, the “biofilm growth: OD 630 nm (crystal violet) at 48 hrs divided by OD of control” value (Actinomyces naeslundii; 10 μmol/ml) was 0.4234, the “biofilm growth: OD 630 nm (crystal violet) at 48 hrs divided by OD of control” value (Actinomyces naeslundii; 20 μmol/ml) was 0.0174 and the “biofilm growth: OD 630 nm (crystal violet) at 48 hrs divided by OD of control” value (Actinomyces naeslundii; 25 μmol/ml) was 0.0067. The “biofilm growth: OD 630 nm (crystal violet) at 48 hrs divided by OD of control” value (Streptococcus mutans; 5 μmol/ml) was 0.0781, the “biofilm growth: OD 630 nm (crystal violet) at 48 hrs divided by OD of control” value (Streptococcus mutans; 10 μmol/ml) was 0.5693 and the “biofilm growth: OD 630 nm (crystal violet) at 48 hrs divided by OD of control” value (Streptococcus mutans; 20 μmol/ml) was 1.2009. The “biofilm growth: OD 630 nm (crystal violet) at 48 hrs divided by OD of control” value (Streptococcus mutans; 25 μmol/ml) was 0.4072, the “biofilm growth: OD 630 nm (crystal violet) at 48 hrs divided by OD of control” value (Fusobacterium nucleatum; 5 μmol/ml) was 0.2553 and the “biofilm growth: OD 630 nm (crystal violet) at 48 hrs divided by OD of control” value (Fusobacterium nucleatum; 10 μmol/ml) was 0.2232. For the same substance, the “biofilm growth: OD 630 nm (crystal violet) at 48 hrs divided by OD of control” value (Fusobacterium nucleatum; 20 μmol/ml) was 0.0056, the “biofilm growth: OD 630 nm (crystal violet) at 48 hrs divided by OD of control” value (Fusobacterium nucleatum; 25 μmol/ml) was 0.0112 and the “biofilm growth: OD 630 nm (crystal violet) at 48 hrs divided by OD of control” value (Streptococcus gordonii; 5 μmol/ml) was 1.8315. For the same substance, the “biofilm growth: OD 630 nm (crystal violet) at 48 hrs divided by OD of control” value (Streptococcus gordonii; 10 μmol/ml) was 1.7019, the “biofilm growth: OD 630 nm (crystal violet) at 48 hrs divided by OD of control” value (Streptococcus gordonii; 20 μmol/ml) was 0.6462 and the “biofilm growth: OD 630 nm (crystal violet) at 48 hrs divided by OD of control” value (Streptococcus gordonii; 25 μmol/ml) was 0.2237. For the same substance, the “biofilm growth: OD 630 nm (crystal violet) at 48 hrs divided by OD of control” value (Porphyromonas gingivalis; 5 μmol/ml) was 0.7552, the “biofilm growth: OD 630 nm (crystal violet) at 48 hrs divided by OD of control” value (Porphyromonas gingivalis; 10 μmol/ml) was 0.9004 and the “biofilm growth: OD 630 nm (crystal violet) at 48 hrs divided by OD of control” value (Porphyromonas gingivalis; 20 μmol/ml) was 0.1717. For the same substance, the “biofilm growth: OD 630 nm (crystal violet) at 48 hrs divided by OD of control” value (Porphyromonas gingivalis; 25 μmol/ml) was 0.3008, the “biofilm growth: OD 630 nm (crystal violet) at 48 hrs divided by OD of control” value (Capnocytophaga sputigena; 5 μmol/ml) was 0.1909 and the “biofilm growth: OD 630 nm (crystal violet) at 48 hrs divided by OD of control” value (Capnocytophaga sputigena; 10 μmol/ml) was 0.1079. The “biofilm growth: OD 630 nm (crystal violet) at 48 hrs divided by OD of control” value (Capnocytophaga sputigena; 20 μmol/ml) was 0.1578, the “biofilm growth: OD 630 nm (crystal violet) at 48 hrs divided by OD of control” value (Capnocytophaga sputigena; 25 μmol/ml) was 0.2648 and the “biofilm growth: OD 630 nm (crystal violet) at 48 hrs divided by OD of control” value (Tannerella forsythia; 5 μmol/ml) was 0.5744. The “biofilm growth: OD 630 nm (crystal violet) at 48 hrs divided by OD of control” value (Tannerella forsythia; 10 μmol/ml) was 0.3083, the “biofilm growth: OD 630 nm (crystal violet) at 48 hrs divided by OD of control” value (Tannerella forsythia; 20 μmol/ml) was 0.0188 and the “biofilm growth: OD 630 nm (crystal violet) at 48 hrs divided by OD of control” value (Tannerella forsythia; 25 μmol/ml) was 0.0254. For the same substance, the “biofilm growth: OD 630 nm (crystal violet) at 48 hrs divided by OD of control” value (Actinomyces viscosus; 5 μmol/ml) was 1.3972, the “biofilm growth: OD 630 nm (crystal violet) at 48 hrs divided by OD of control” value (Actinomyces viscosus; 10 μmol/ml) was 1.2242 and the “biofilm growth: OD 630 nm (crystal violet) at 48 hrs divided by OD of control” value (Actinomyces viscosus; 20 μmol/ml) was 0.0684. For the same substance, the “biofilm growth: OD 630 nm (crystal violet) at 48 hrs divided by OD of control” value (Actinomyces viscosus; 25 μmol/ml) was 0.0490, the “biofilm growth: OD 630 nm (crystal violet) at 48 hrs divided by OD of control” value ([1]; 5 μmol/ml) was 0.5867 and the “biofilm growth: OD 630 nm (crystal violet) at 48 hrs divided by OD of control” value ([1]; 10 μmol/ml) was 0.3454. For the same substance, the “biofilm growth: OD 630 nm (crystal violet) at 48 hrs divided by OD of control” value ([1]; 20 μmol/ml) was 0.0481, the “biofilm growth: OD 630 nm (crystal violet) at 48 hrs divided by OD of control” value ([1]; 25 μmol/ml) was 0.0212 and the “biofilm growth: OD 630 nm (crystal violet) at 48 hrs divided by OD of control” value (Veillonella parvula; 5 μmol/ml) was 0.3257. The “biofilm growth: OD 630 nm (crystal violet) at 48 hrs divided by OD of control” value (Veillonella parvula; 10 μmol/ml) was 0.3136, the “biofilm growth: OD 630 nm (crystal violet) at 48 hrs divided by OD of control” value (Veillonella parvula; 20 μmol/ml) was 0.1638 and the “biofilm growth: OD 630 nm (crystal violet) at 48 hrs divided by OD of control” value (Veillonella parvula; 25 μmol/ml) was 0.2969. The “biofilm growth: OD 630 nm (crystal violet) at 48 hrs divided by OD of control” value (Prevotella intermedia; 5 μmol/ml) was 0.7904, the “biofilm growth: OD 630 nm (crystal violet) at 48 hrs divided by OD of control” value (Prevotella intermedia; 10 μmol/ml) was 0.1852 and the “biofilm growth: OD 630 nm (crystal violet) at 48 hrs divided by OD of control” value (Prevotella intermedia; 20 μmol/ml) was 0.2103. For the same substance, the “biofilm growth: OD 630 nm (crystal violet) at 48 hrs divided by OD of control” value (Prevotella intermedia; 25 μmol/ml) was 0.2516, the “biofilm growth: OD 630 nm (crystal violet) at 48 hrs divided by OD of control” value (Streptococcus mitis; 5 μmol/ml) was 0.7237 and the “biofilm growth: OD 630 nm (crystal violet) at 48 hrs divided by OD of control” value (Streptococcus mitis; 10 μmol/ml) was 0.0179. The “biofilm growth: OD 630 nm (crystal violet) at 48 hrs divided by OD of control” value (Streptococcus mitis; 20 μmol/ml) was 0.0264 and the “biofilm growth: OD 630 nm (crystal violet) at 48 hrs divided by OD of control” value (Streptococcus mitis; 25 μmol/ml) was 0.1018.
